Assay results: patent publication US20130296239A1, “Material for Wound Healing and Skin Reconstruction” (3-D Matrix, Ltd., priority 2007, published 2013)
Where “and” joins values, the source holds several entries; their conditions need not be identical. Identical values can stand only once.

Columns and labels:
[1] = tested on: skin wound model mice (1 cm×1 cm wound); assay: Skin wound model of mice: wound area and observation of the affected area; format: in vivo, NTaC:NIHS-Foxn1 <nu> type nude mice
Experimental: 30 NTaC:NIHS-Foxn1 type nude mice (female, weight ˜20 g) were used as experimental animals. The mice were housed in the condition of a temperature of 17 to 26° C., a relative humidity of 30 to 70%, a 12-hour light/dark cycle, minimum of ten fresh air changes/hour, and diet was provided once daily and the mice had access to water ad libitum.
Anesthesia was induced by placing the mice in a chamber filled with isoflurane at 2.5 to 4%, and maintained with isoflurane delivered through a nose cone at 0.5 to 2.5%.
All residual hair was removed from the upper right dorsum, and the operative area was cleaned with three alternating scrubs of povidone-iodine scrub and 70% alcohol. Once the alternating scrubs were complete, a final application of povidone-iodine scrub was applied and allowed to dry. The area was draped for aseptic surgery.
Forceps were used to pinch up a fold of skin (at what would become the lower right corner of the wound), and scissors were used to separate the skin and create a 1 cm×1 cm wound. Blood was soaked up with a sterile gauze pad.
(b-1) The centrifuge tube was placed into a cool water bath. The bath was sonicated for 30 min, and then the contents of the tube were vortexed for one minute. Air bubbles were then removed via centrifugation (3000 rpm, 1 min). Vortexing and centrifugation were repeated as necessary to remove all bubbles. The 1% PuraMatrix (trade mark) solution was prepared and administered to animals in test group-1.
(b-2) The 5 ng/μL hbFGF PBS solution (20 μL) was added to the sterile centrifuge tube previously containing 1 mL of 1% PuraMatrix (trade mark). The mixture was then vortexed to homogenize. The centrifuge tube was placed into the cool water bath and sonicated for 30 min, vortexed for 1 min, then centrifuged at room temperature (3000 rpm, 1 min) to remove air bubbles. Vortexing and centrifugation were repeated as necessary to remove all air bubbles. The PuraMatrix+hbFGF solution obtained was administered to animals in the test group-2.
The 30 skin wound model mice produced in (a) were divided into three groups of 10 mice, and treated according to the scheme in Table 1 immediately after the surgical procedure. The day when surgical procedure was performed (wound creation) was regarded as Day 0. Observation of wound area was performed at just before a treatment on Day 0 (FIG. 1), Day 7 (FIG. 2), Day 14 (FIG. 3), Day 21 (FIG. 4) and Day 28 (FIG. 5).
Baseline wound measurements were recorded prior to the application of the first dressing. Weekly measurements were obtained by removing the dressing of self-assembling hydropeptide gel (for the control group, a petroleum jelly impregnated gauze only) and exposing the wound site. A ruler was placed adjacent to the wound area and digital photographs were obtained, thereafter, the wound was re-dressed with the self-assembling hydropeptide gel (for the control group, a petroleum jelly impregnated gauze only). Wound area was calculated using ImageJ version 1.37 at the NIH website.

[2] = tested on: wound area of skin wound model mice; assay: Histopathological observation of wound area on Day 28; format: in vivo, nude mice; design: key to Vascularization: 0: Decreased vascularity compared to normal dermis.; 1: Dermal vascularity within normal limits.; 2: Minimally increased prominence of dermal or wound capillaries.; 3: Mild increase in prominence of dermal or wound capillaries.; 4: Moderate increase in prominence of dermal or wound capillaries; key to Collagen quality: 0: Lack of fibroplasia and/or collagen in wound.; 1: Minimal to mild fibroplasia in the granulation tissue of the wound.; 2: Moderate fibroplasia and collagen throughout the wound.; 3: Superficial portion of the wound has dense collagen similar to normal dermal collagen.; 4: Dense collagen throughout the wound; key to Inflammation: 0: No increase in inflammatory cells (within normal limits for dermis of nude mice).; 1: Minimal increase in inflammatory cells.; 2: Mild increase in inflammatory cells.; 3: Moderate increase in inflammatory cells.; 4: Marked increase in inflammatory cells; key to Epithelization: 0: No re-epithelization.; 1: Partial re-epithelization. (Wound surface is not completely covered by epithelial cells.); 2: Re-epithelization across the full surface of the wound, but the epithelium is not a stratified squamous epithelium with multiple strata; 3: Re-epithelization across the full surface of the wound with a stratified squamous epithelium and keratinization, but there is evidence of active remodeling; 4: Complete re-epithelization with a keratinized stratified squamous epithelium with remodeling and organization within normal limits
Experimental: In order to evaluate parameters of wound healing in the skin of nude mice from three groups, histopathological examination was carried out.
After the observation on Day 28, each mouse was sacrificed and a paraffin block containing the wound area, through the center of each wound perpendicular to the apparent longest axis was produced. A hematoxylin and eosin-stained and a trichrome-stained histologic sections were prepared from each block. Using the H&E-stained section, the epithelization, vascularization, and inflammation associated with the wound were ranked, and using the trichrome-stained section the amount and quality of collagen in the area of the wound were evaluated. The results of these evaluations were shown in Table 2-1 (control group), Table 2-2 (test group-1), and Table 2-3 (test group-2).
Definitions for each score are as follows.
0=No re-epithelization. 1=Partial re-epithelization. (Wound surface is not completely covered by epithelial cells.) 2=Re-epithelization across the full surface of the wound, but the epithelium is not a stratified squamous epithelium with multiple strata (stratum basale, stratum spinosum, stratum granulosum). 3=Re-epithelization across the full surface of the wound with a stratified squamous epithelium and keratinization, but there is evidence of active remodeling in the form of apoptotic or necrotic cells or dyskeratosis, or multiple mitotic figures, or irregular thickness or irregular strata (hyperplasia). 4=Complete re-epithelization with a keratinized stratified squamous epithelium with remodeling and organization within normal limits. (The only alteration is lack of hair follicles and adenexia in the dermis.)
0=Decreased vascularity compared to normal dermis. 1=Dermal vascularity within normal limits. […] Increased prominence may be due to increased number, dilation (congestion or hyperemia), or increased size. 3=Mild increase in prominence of dermal or wound capillaries. 4=Moderate increase in prominence of dermal or wound capillaries. <Inflammation> Inflammation consisted of increased number of neutrophils and macrophages in the dermis and scar tissue beneath the epidermis. […] 0=No increase in inflammatory cells (within normal limits for dermis of nude mice). 1=Minimal increase in inflammatory cells. Inflammation tends to be multifocal, perivascular. 2=Mild increase in inflammatory cells. Inflammation tends to be multifocal, perivascular. 3=Moderate increase in inflammatory cells. 4=Marked increase in inflammatory cells.
0=Lack of fibroplasia and/or collagen in wound. 1=Minimal to mild fibroplasia in the granulation tissue of the wound. 2=Moderate fibroplasia and collagen throughout the wound. 3=Superficial portion of the wound has dense collagen similar to normal dermal collagen. 4=Dense collagen throughout the wound. There are relatively fewer fibroblasts and the collagen is slightly denser than normal dermis.
Depth of collagen (μm) beneath the epithelium in the wound was estimated at the thickest portion of the collagen using an ocular micrometer that was calibrated with an objective micrometer (×10).

[3] = liquid when pH is not higher than 5.0; cited from earlier work
[4] = Day 28, compared to control group
[5] = rank score, Day 28, H&E-stained section, one value per mouse

Ac-(RADA)4-CONH2 [PuraMatrix]
wound area ([1]; Day 7, compared to control group (FIG. 2)): decreased drastically
healing rate (ratio of the wound area to the area when wound created, FIG. 6) ([1]; Day 7 and Day 14, compared to control group, 100 μL to wound area): healing more quickly than those in the control group
healing of the wound area ([1]; Day 14 (FIG. 3)): almost complete
healing of the wounds ([1]; Day 21 (FIG. 4)): completely healed
puckering of skin ([1]; Day 21, compared to control group (FIG. 4)): less puckering of skin
scar ([1]; Day 28, observation before dissection): visible in all animals
wound contraction noted ([1]; Day 28, observation before dissection, all animals in control group (FIG. 5)): 8/10
overall wound healing effect ([1]; conclusion from Day 0-28 observations): significant healing effect visibly recognized
Collagen depth ([2]; Day 28, beneath the epithelium at thickest portion of collagen, one value per mouse): 550 μm (2×) and 250 μm (3×) and 470 μm and 500 μm (2×) and 540 μm and 200 μm
ranking of epithelization and vascularization across groups ([2]; Day 28, compared across the three groups): little difference
mice with an inflammation rank 0 [2, 4]: larger numbers of mice
mice with dense collagen throughout the wound scar [2, 4]: larger numbers of mice
typical state of wound area structure in pathological section ([2]; Day 28, photomicrograph, compared to control group (FIG. 8, FIG. 9)): there is dense collagen so that the dermis 2 is slightly more stained
mice with rank scores 4, 1, 0, 4 (most advanced wound healing) ([2]; Day 28, no mice in control group): one
Epithelization [2, 5]: 4 (5×) and 3 (5×)
Inflammation [2, 5]: 1 (5×) and 0 (3×) and 2 (2×)
Vascularization [2, 5]: 2 (6×) and 1 (4×)
Collagen quality ([2]; rank score, Day 28, trichrome-stained section, one value per mouse): 3 (3×) and 4 (7×)
pH at which the peptide solution forms a gel (self-assembles into nanofibers) [3]: higher than 5.0
